Assay results as given in patent US12209142B2, “SARS-CoV-2 epitope-targeted peptide immunostimulants” (Institute for Systems Biology, priority 2020, dated 2025).
Entries after “also recorded” stand apart in the source; their conditions may differ. Where a SMILES comes first, the peptide text is derived from it. Bridges are numbered along the chain shown (N, C = ends). Triazole bridges read from a SMILES are 1,4-linked. [ ]: non-standard residue; d: D form. The star is where a group is joined. Biotin = O=C1N[C@H]2[C@H](CS[C@H]2CCCCC(=O)*)N1; Lys(N3) = [N-]=[N+]=NCCCC[C@H](N)C(=O)O; PEG5 = NCCOCCOCCOCCOCCOCCC(=O)O; Pra = C#CC[C@H](N)C(=O)O

Experiments:
[1] = system: MrkA synthetic epitopes (SynEp 1-4); test: Epitope selectivity sandwich ELISA with immobilized SynEps; assay type: binding, Klebsiella pneumoniae; conditions: DNP-conjugated ligand at 500 nM, anti-DNP detection
Procedure: The particular epitope target to which cy(LLFFF) (SEQ ID NO:5) binds was next identified. A sandwich ELISA was performed in which the biotinylated SynEps were immobilized. The lead ligand cy(LLFFF) (SEQ ID NO:5), conjugated to a 2,4-dinitrophenyl (DNP) moiety, was titrated at a 500 nM concentration, and anti-DNP was used as a detection antibody. […] A background level for this assay was established using a biotinylated 6-mer polyethylene glycol (biotin-PEG6). […] As the native epitope for SynEp1 has a GRAVY score of 1.01, while the native versions of other SynEps range between −0.9 and −0.28, the negative ELISA signals may arise from the relatively high hydrophobicity of SynEp 1 versus others. The blocking may also result from the reactivity of the cysteine residue in SynEp 1. […] (SEQ ID NO:2) in native MrkA.
In vitro ELISA assays. ELISA assays for MrkA-binding and epitope selectivity were performed on clear NeutrAvidin Coated High Capacity Plates (ThermoFisher, 15507). The buffer used for all washes and to dissolve all compounds was TBST+0.1% BSA (TBS+0.05% Tween 20+0.1% BSA, pH 7.3) and, unless otherwise stated, steps were conducted at room temperature. Each wash involved a brief 20 s agitation, and all conjugation, blocking, and incubation steps were performed with gentle agitation over the entire stated time period. […]

[2] = system: Escherichia coli (E. coli) cells; test: Whole-cell ELISA of biotinylated PCC binding; conditions: biotinylated PCC at 5 μM
Procedure: Whole-cell ELISAs. Detection of the binding of biotinylated PCCs to bacterial surface was performed as follows. 108 bacteria from a culture grown overnight were used for each test. Bacteria were incubated with PBS containing 1% BSA (PBS-BSA) for 1 h at 37° C., washed once with PBS, and then incubated with 5 μM of the biotinylated PCC in PBS-BSA for 1 h at 37° C. After washing thrice with PBS to remove unbound PCCs, bacteria were incubated with Streptavidin-HRP (1:1000) for 1 h at 37° C. Bacteria were washed thoroughly and the TMB reagent was added until visible coloration was observed. The reaction was quenched using 2N H2SO4 and absorbance was measured at 450 nm.

[3] = target: T1, full-length recombinant MrkA protein (Klebsiella pneumoniae, UniProt P12267); test: Sandwich ELISA of PCC binding to full-length MrkA; conditions: sandwich ELISA, biotinylated PCC immobilized
T1 construct: purchased MyBiosource MBS1248970
Procedure: The screen yielded 26 hits (Table 2) that were sequenced, scaled up, and tested for binding to full-length recombinant MrkA in solution by single-point sandwich Enzyme-linked immunoassays (ELISAs) (FIG. 8). HPraGly is present before X1 in each peptide and Az4 follows X5 in each peptide.
An alanine scan was performed to establish which residues of cy(LLFFF) (SEQ ID NO:5) contribute most to MrkA binding. In this assay, a sandwich ELISA is used to quantify the affinity of several cy(LLFFF) (SEQ ID NO:5) analogues, in which one residue is substituted with an alanine, towards full-length MrkA protein. The ELISA results in FIG. 4 show lower signal for every alanine-substituted cy(LLFFF) (SEQ ID NO:5) analogue compared to unmodified cy(LLFFF) (SEQ ID NO:5), establishing that the native compound has the highest affinity. […] Thus, these two C-terminal phenylalanine residues (FIG. 3A, arrows in inset) play critical roles in MrkA binding, and are targets for modifications to improve binding. Another important detail of these alanine scan results is a strong dependence of MrkA binding on the residue position, independent of residue type. For example, cy(LLAFF) (SEQ ID NO:9) and cy(LLFFA) (SEQ ID NO:11) have very different binding affinities, despite having the same phenylalanine-to-alanine substitution.
In vitro ELISA assays. ELISA assays for MrkA-binding and epitope selectivity were performed on clear NeutrAvidin Coated High Capacity Plates (ThermoFisher, 15507). The buffer used for all washes and to dissolve all compounds was TBST+0.1% BSA (TBS+0.05% Tween 20+0.1% BSA, pH 7.3) and, unless otherwise stated, steps were conducted at room temperature. Each wash involved a brief 20 s agitation, and all conjugation, blocking, and incubation steps were performed with gentle agitation over the entire stated time period. The general procedure for an ELISA assay was: wash 3×200 μL/well, conjugate with 2 μM of biotinylated compound for 2 h at room temperature (100 μL/well), wash 3×200 μL/well, blocked overnight in 5 wt % milk at 4° C., wash […] with wash buffer, incubate with titrated compound (e.g., MrkA or epitope) for 1 h, […], incubate with primary antibody […] for 1 h (100 μL/well), wash 3×200 μL/well, incubate with 1:2,000 anti-rabbit secondary antibody-horseradish peroxidase conjugate (Cell signaling Technologies, 7074S) for 1 h, 3×200 μL/well, develop with the Microwell Peroxidase Substrate System (2-C) (SeraCare, 5120-0047) using 100 μL/well for 1-40 minutes, and quench using 1 M H2SO4 (aq.) at 100 μL/well. For MrkA binding assays, biotinylated PCCs were conjugated to the well surface, recombinant MrkA with an N-terminal 6×His-SUMO-tag (MyBiosource, MBS1248970) was titrated at the desired concentration, and the primary antibody was His-tag antibody, pAb, Rabbit (Genscript, A00174) at a 1:5,000 dilution. For epitope selectivity assays, biotinylated SynEps were conjugated, DNP-conjugated AR-PCCs were titrated at a desired concentration, and the primary antibody was anti-DNP antibody produced in Rabbit (Sigma-Aldrich, D9656) at a 1:8,000 dilution. […] For binding tests in the context of mouse sera, the “titrated compound” described in the steps above was dispersed in a solution containing the desired concentration of mouse serum.

T1 sequence (P12267 23-202): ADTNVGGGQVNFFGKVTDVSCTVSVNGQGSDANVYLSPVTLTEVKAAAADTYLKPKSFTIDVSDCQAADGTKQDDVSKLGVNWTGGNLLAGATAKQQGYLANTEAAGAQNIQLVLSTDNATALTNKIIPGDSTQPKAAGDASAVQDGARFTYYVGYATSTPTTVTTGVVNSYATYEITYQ

CC(C)C[C@@H]1NC(=O)[C@@H](NC(=O)CCOCCOCCOCCOCCOCCNC(=O)CCCC[C@@H]2SC[C@@H]3NC(=O)N[C@@H]32)Cc2cn(nn2)CCCC[C@@H](C(N)=O)NC(=O)[C@H](Cc2ccccc2)NC(=O)[C@H](Cc2ccccc2)NC(=O)[C@H](Cc2ccccc2)NC(=O)[C@H](CC(C)C)NC1=O [cy(LLFFF)] ({Biotin-PEG5}-[Pra]LLFFF[Lys(N3)]-NH2; triazole 1-7; N-terminus and C-terminus assumed)
binding to synthetic epitopes (SynEp selectivity) [1]: preferably bind synthetic epitope 2; also recorded: highest signals from SynEp 2; also recorded: selectively binds synthetic epitope 2 versus other targeted epitopes | whole-cell ELISA signal, E. coli [2]: small absorbances; also recorded: only weak signals | EC50 [3]: 50 nM
